From US10921327B2, “Probes for quantitative imaging of thiols in various environments” (Baylor College of Medicine, priority 2014, dated 2021)
Where “and” joins values, the source holds several entries; their conditions need not be identical. Identical values can stand only once. Like-named read-outs stand apart in the source and are kept apart here.

Legend:
cells = assay: Confocal imaging of probe interacting with cells (cell penetration); format: cell-based
Procedure: FIG. 10 provides confocal images at 488 nm channel of TQ Green (acid form, FIG. 10A), and TQ Green-AM (ester form, FIG. 10B) interacting with cells.
All cell lines used in this study were purchased from American Type Culture Collection (ATCC) and grown in DMEM (Gibco, 11965) media supplemented with 10% FBS and 1% 1003 Pen Strep (Gibco). Cells were cultured under a controlled atmosphere (37° C., 5% CO2). Glass dishes were used for cell culture due to confocal scanning requirements. Cells were treated with TQ Green-AM (20 nM-1 μM with 0.0025-1% DMSO in PBS) for 30 minutes, followed by two washing steps with tryptan blue and PBS prior to imaging. Fluorescent images were acquired with 405 nm laser/430-470 nm filter and 488 nm laser/575-620 nm filter. All the microscope settings were kept consistent in each experiment.

[1] = Equilibrium (dissociation constant) of probe and GSH reaction, UV-Vis/fluorescence; format: binding
Procedure: Applicants also determined Keq between TQ Green and GSH and the relationship of the ratiometric change as a function of GSH concentration. Kd′ is the apparent dissociation constant for the reaction between TQ Green and GSH. The following equation can be derived:
Plotting (R−Rmin)/(Rmax−R) as a function of GSH concentration afforded a superb linear relationship with r^2=0.999 (FIGS. 6-7).
TQ Green was dissolved in PBS buffer (10 mM, pH 7.4) containing 1% DMSO with concentration at 32 μM. GSH was dissolved in the same PBS buffer with concentration from 0-80 mM. Above solutions were mixed at 1:1 ratio. All solutions were protected with nitrogen and stored in glove box to prevent any oxygen entering the solution. Samples of all solutions were taken out at 1, 18, 72, and 144 hours after mixing. UV-Vis and fluorescence were measured for all solutions.
Compounds 3b-d were dissolved in DMSO (10 mM) and 1 eq of 2 M β-mercaptoethanol (BME) was added. Compounds 3a and TQ Green were dissolved in PBS buffer (10 mM, pH 7.4) with 1% DMSO. GSH solution was added to reach a final concentration of 80 mM with compound 3a at 10 μM and TQ Green at 16 μM, respectively. All solutions were then monitored continuously with UV-Vis and fluorimeter for 2 hours (Table 1).

[2] = UV-Vis absorption, fluorescence and quantum yield; format: physicochemical; settings: for Quantum Yield (PBS): λex = 479 nm (TQ Green), 406 nm (TQ Green-GSH); for Quantum Yield (Methanol): Rhodamine 123 as standard
Excerpt: TQ Green absorbs at 479 nm and fluoresces at 590 nm (λex=488 nm, FIG. 3). The extinction coefficients of TQ Green and TQ Green-GSH at their maximum absorption wavelengths are (2.3±0.2)×10^4 M^−1·cm^−1 (a, =479 nm, Table 2) and (1.6±0.2)×10^4 M^−1·cm^−1 (λmax=407 nm, Table 1), respectively. Upon reacting with GSH, the Abs and Fl peaks shift hypsochromically to 406 and 463 nm (λex=405 nm), respectively. The Abs of TQ Green and TQ Green-GSH (the adduct between TQ Green and GSH) are close to 488 and 405 nm, respectively, which are two commonly used laser wavelengths for confocal microscopes. […]
NMR spectra were recorded on a Varian NMR (^1H at 400 MHz) spectrometer. Chemical shifts (δ) were given in ppm with reference to solvent signals [^1H NMR: CDCl3 (7.26), CD3OD (3.31)]. UV-Vis measurements were performed with 2×10 mm quartz cuvette in Cary 60 UV-is Spectrometer. Fluorescence measurements were performed with the same quartz cuvette in Cary Eclipse Fluorescence Spectrophotometer with an excitation slit of 5 nm, an emission slit of 10 nm and PMT at 650 V. Flash chromatography was performed on a Teledyne ISCO CombiFlashRf200. Olympus FV1000 laser scanning confocal microscope system was used for cell imaging. ESI mass spectrometry was measured on a BrukerMS microTOF ESI, at the Shared Equipment Authority at Rice University. Flow cytometry was performed on BD LSR II Flow Cytometer at BCM core facilities.
As summarized in Table 5, quantum yields of synthesized GSH probes and a GSH adduct with Rhodamine 123 as the standard were analyzed. Quantum yields were determined using a comparative method described previously. The bromine atom on the phenyl ring potentially enhances the push-pull effect of the coumarin-based fluorophore, thus increases the quantum yield.

[3] = Reaction kinetics and reversibility of probe with GSH (UV-Vis)
Procedure: The reaction between TQ Green and GSH is reversible.
The second-order rate constant between TQ Green and GSH is 0.150±0.001M^−1·s^−1. There were no appreciable Abs changes observed after 20 minutes. Following a pause for another 80 minutes to ensure that the equilibrium between TQ Green and GSH was fully established, Applicants added two equivalents of an irreversible Michael acceptor (5,6-dihydro-2H-pyran-2-one) to deplete all the GSH in solution (FIG. 4A).
GSH in PBS was added to a solution of TQ Green in PBS buffer (10 mM, pH 7.4) containing 1% DMSO. The final concentrations of GSH and TQ Green were 10 mM and 16 μM, respectively. The solutions were then monitored continuously with UV-Vis spectrometer (FIGS. 21A-D).

[4] = Reaction specificity of TQ Green: cysteine; settings: 0.1 mM cysteine, within 2 hours, PBS pH 7.4
Procedure: For clarity, data points for TQ Green reaction with BSA, Cysteine, and PBS were offset by 0.1 units from each other on the y axis. Data points represent the absorbance of reaction mixtures of TQ Green (32 μM) with cysteine (100 μM, blue), BSA (5 mM, green), GSH (20 mM red) and water (black) in PBS (pH 7.4) at 480 nm, the maximum absorption wavelength for TQ Green.
Free cysteine and the surface exposed cysteine residues on proteins inside cells could potentially compete with GSH in TQ Green reactions. It is known that, in contrast to the 1-10 mM concentrations of GSH inside cells, cysteine concentrations are in the range of 0.1-1 mM, approximately an order of magnitude lower than GSH levels. Assuming cysteine and GSH have similar reactivities, the presence of cysteine will introduce an error no more than 10%.

Cell penetration (confocal, 488 nm channel) (cells): trapped in the membrane
Kd ([1]; deduced from Kd′ and absorption values at 488 nm, read-out: Kd (equilibrium dissociation constant)): 1.6 mM
Kd ([1]; reaction with various concentration of GSH in water/PBS pH 7.4, based on UV-Vis, read-out: Kd′ observed (apparent) dissociation constant): 14.8 mM
Abs Max Wavelength ([2]; PBS pH 7.4): 479 nm and 480 nm
Fl Emission Max Wavelength ([2]; PBS pH 7.4, λex = 488 nm (TQ Green), λex = 405 nm (TQ Green-GSH)): 590 nm
Quantum Yield (PBS) [2]: 0.0094±0.0004
Quantum Yield (PBS) ([2]; listed as drawing 19): 0.0094 ± 0.0004
Quantum Yield (Methanol) [2]: 0.16±0.05
Quantum Yield (Methanol) ([2]; listed as drawing 18): 0.16 ± 0.05
Absorbance maximum in octanol ([2]; octanol): 455 nm
SMILES: CCN(CC)c1ccc2cc(/C=C/C(=O)c3ccc(C(=O)O)cc3Br)c(=O)oc2c1 [TQ Green]
Time to reach 95% of conversion ([3]; 10 mM GSH in PBS, room temperature, TQ Green 16 μM, probe 3a 10 μM): ~30 min
Time to establish equilibrium with GSH ([3]; 37° C., intracellular environment, extrapolated): 15 to 30 min
Second-Order Rate Constant ([3]; TQ Green and GSH): 0.150 ± 0.001 M⁻¹ s⁻¹
Reaction with cysteine [4]: did not observe appreciable reactions
